Three molecules from US10759905B2, “Biodegradable amphiphilic polymer, polymeric vesicles prepared therefrom, and application of biodegradable amphiphilic polymer in preparation of medicines for targeted therapy of lung cancer” (priority 2015, dated 2020) can be followed below.

Series [1] has as its system A549 lung cancer cells. Put plainly: MTT assay, toxicity of drug-loaded vesicles on A549 cells. The format is cell-based. To be noted: Homo sapiens, A549, read-out: half inhibition concentration (IC50) for A549 cells. For orientation: Tetrazolium dyes change colour on reduction, which living cells bring about.
Procedure: The toxicity of the polymeric vesicles on A549 cells was tested by MTT assay. […] The concentrations of DOX.HCl were 0.01, 0.1, 0.5, 1, 5, 10, 20 and 40 μg/mL, respectively. The content of the targeting molecules ranged from 10%, 20% to 30%; the non-targeted drug-loaded self-crosslinked polymeric vesicle group and the free DOX.HCl group were used as control groups. After co-cultivation for 4 hours, the samples were aspirated and replaced with fresh medium to continue incubation for 44 hours.
Series [2] has as its system orthotopic A549 lung cancer (A549-Luc). To be noted: for bioluminescence intensity of the lung tumor / tumor growth: i.v. on Days 0, 4, 8 and 12, within 16 days; for survival of the mice (all survived / all dead): orthotopic A549.
Procedure: Balb/C nude mice weighing approximately 18 to 20 grams (aged 4 to 6 weeks) were selected for the experiment. 5×10^6 bioluminescent A549 human lung cancer cells (A549-Luc) were directly injected in the lungs. After about 10 days, the mice were observed by an in vivo imaging system for small animals. […] From Day 0 to Day 16, the body weights of the mice were measured every four days. The bioluminescence intensity of the lung tumor in mice was monitored using an in vivo imaging system for small animals. The survival of the mice was observed up to 45 days.
The PTG-loaded cRGD/CLPs, the non-targeted self-crosslinked polymeric vesicle CLPs, Taxol, and PBS were injected into mice, respectively.
A short description of series [3]: in vivo. To be noted: Balb/C nude, mouse, iv, 10 mg/kg.
Series [4] deals with A549 subcutaneous lung cancer. Put plainly: Anti-tumor effect in mice bearing A549 subcutaneous lung cancer. It is filed as in vivo. To be noted: i.v. on Day 0, 4, 8 and 12, DOX 10 mg/kg; Day 18. As to the method:
The volumes of the tumor were measured by a vernier caliper. The tumor volume was calculated as: V=(L×W×H)/2 (wherein L was the tumor length, W was the tumor width, and H was the tumor thickness). The survival of the mice were observed up to 45 days.
The establishment of a subcutaneous A549 tumor-bearing mice model, administration via tail vein, and data collection were the same as those in Example 37.

The subject of series [5] is H460 human lung cancer cells. The series is described as follows: MTT assay, toxicity of drug-loaded vesicles on H460 cells. To be noted: NCI-H460, 4 h co-cultivation, then 44 h in fresh medium. It is filed as cell-based. As to the method:
MTT assay was used to test the toxicity of the polymeric vesicles on H460 human lung cancer cells. […] After co-cultivation for 4 hours, the samples were aspirated and replaced with fresh medium to continue incubation for 44 hours. The subsequent addition of MTT, treatment, and measurement of absorbance were the same as those in Example 26.

Series [6] relates to H460 subcutaneous lung cancer. The series is described as follows: Anti-tumor effect in mice bearing H460 subcutaneous lung cancer. The format is in vivo. The source says:
The establishment of a subcutaneous H460 tumor-bearing mice model was the same as that in Example 33.

Where a name gives a salt, the structure may show the parent alone.

On to `COc1cccc2c1C(=O)c1c(O)c3c(c(O)c1C2=O)C[C@@](O)(C(=O)CO)C[C@@H]3O[C@H]1C[C@H](N)[C@H](O)[C@H](C)O1` [DOX.HCl, doxorubicin hydrochloride], for which, in series [1], the IC50 was 4.89 µg/mL. In series [2], the “bioluminescence intensity of the lung tumor / tumor growth” value is on record as “could also inhibit the growth of tumor” and the “survival of the mice (all survived / all dead)” value is not above 30 days. Besides, in series [3], the half-life was 16.2 min. The tumor growth entry in series [4] is “could also inhibit the growth of tumor”.
Take `CCc1c2c(nc3ccc(OC(=O)N4CCC(N5CCCCC5)CC4)cc13)-c1cc3c(c(=O)n1C2)COC(=O)[C@]3(O)CC` [CPT.HCl, irinotecan hydrochloride]: the body weight decrease in series [2] (Day 3) stood at 21%; in series [6] (Day 10), 18%. In addition, the “bioluminescence intensity of the lung tumor / tumor growth” value in series [2] was “could also inhibit the growth of tumor”. The “survival of the mice (all survived / all dead)” value was not above 34 days in series [2] and not above 28 days in series [6] (subcutaneous H460). Besides, the IC50 in series [5] turned out to be 3.09 µg/mL. Moreover, the tumor growth result in series [6] (i.v., CPT.HCl, Day 18) is given as “could also inhibit the growth of tumor”.
On to `CC(=O)O[C@H]1C(=O)[C@@]2(C)[C@H]([C@H](OC(=O)c3ccccc3)[C@]3(O)C[C@H](OC(=O)[C@H](O)[C@@H](NC(=O)c4ccccc4)c4ccccc4)C(C)=C1C3(C)C)[C@]1(OC(C)=O)CO[C@@H]1C[C@@H]2O` [PTX, paclitaxel], for which, in series [2], the “bioluminescence intensity of the lung tumor / tumor growth” value is “could also inhibit the growth of tumor” and the “survival of the mice (all survived / all dead)” value is not above 29 days.

For orientation: half-life means the time in which the quantity being followed falls by half. The low end stands for fast loss, the high end for slow loss.
